Reference: patent publication US20260344670A1, “BIXLOZONE MIXTURES WITH PETHOXAMID” (FMC CORPORATION, priority 2022, published 2026)

Columns and labels:
Assay type in all cases: in vivo
CAGSE = assay: pre-emergence control of CAGSE in corn (efficacy, Colby synergy)
Description: (§1) Various forms, compositions, and mixtures of bixlozone and pethoxamid were applied to corn before emergence. […] Mixtures of bixlozone with 1200 g/ha pethoxamid improved weed spectrum on a range of broad leaf weeds (e.g., CHEAL, MATSS, and POLSS) and grasses (e.g., ECHCG, DIGSA, and SETVI). Combinations of bixlozone and pethoxamid in pre-emergence applications were very safe with no clear pethoxamid rate effect.
Table 8. Efficacies of various forms and mixtures of bixlozone and pethoxamid after pre-emergence application on corn. Weeds were present at ≥5 pl/m^2. Concentrations are shown in parentheses in g/ha.
(§2) Table 11. Synergy data of various forms and mixtures of bixlozone and pethoxamid after pre-emergence application on corn at the crop row closure stage (BBCH 18). The notations in parentheses show the forms and amounts (in g/ha) of applied bixlozone and pethoxamid, respectively. Where “tank” is noted, the mix is a tank mix. Where “premix” is noted, the mix is a premix. Where there is no notation, the value shown is the Colby calculation for the expected value from separate mixtures.
Various forms, compositions, and mixtures of bixlozone and pethoxamid were applied to corn before emergence. […] Mixtures of bixlozone with 300 g/ha pethoxamid improved weed spectrum on a range of broad leaf weeds (e.g., SOLNI and ABUTH). […]

[1] = system: Persicaria maculosa (POLPE); assay: pre-emergence control of POLPE in corn (efficacy, Colby synergy)
Description: (§3) [formula] • where ppm=milligrams of active ingredient (=a.i.) per liter of spray mixture X=% action by component A using p ppm of active ingredient Y=% action by component B using q ppm of active ingredient. If the ratio R defined as the action actually observed (O) divided by the expected action (E) is >1 then the action of the combination is superadditive, i.e. there is a synergistic effect. For a more detailed description of the Colby formula, see Colby, S. R. “Calculating Synergistic and Antagonistic Responses of Herbicide Combination”, Weeds, Vol. 15, pages 20-22; 1967; see also Limpel et al., Proc. NEWCC 16:48-53 (1962).
(§4) As used herein, rating timings correspond to the following: A1=weed assessment at BBCH 11-12; A2=4 weeks after the application; A3=when ZEAMX crop reaches BBCH 18 (row closure); and A4=BBCH 51-59 of the ZEAMX crop.
(§5) The herbicidal compounds bixlozone and pethoxamid were applied in a variety of forms and at a variety of amounts, application rates, and normalities. Efficacy of the herbicidal compositions was evaluated with reference to a scale of 0% to 100% in comparison with untreated control plots. 0 means no damage to the harmful plants and 100 means complete destruction of the harmful plants. Plants per square meter is indicated by “pl/m^2”, and grams per hectare is indicated by “g/ha”. The acronym “EC” means emulsifiable concentrate (a liquid, homogenous formulation to be applied as an emulsion after dilution with water); “SC” means suspension concentrate (a stable suspension of active ingredient(s) with water as the fluid); “ZC” refers to a mixed formulation of CS and SC (a stable suspension of capsules and active ingredient(s) in a fluid, normally intended for dilution with water before use).
(§6) Various forms, compositions, and mixtures of bixlozone and pethoxamid were applied to corn before emergence. […] There was equivalent efficacy for fixed rate of bixlozone combined with pethoxamid: 1200 or 900 g/ha. Efficacy was reduced when bixlozone rate decreased from 250 to 150 g/ha. […]

[2] = system: Capsella bursa-pastoris (CAPBP); assay: pre-emergence control of CAPBP in corn (efficacy, Colby synergy); settings: bixlozone 375, pethoxamid 800, tank mix 375 + 800, premix 375 + 775 g/ha
Description: as §3, §4
(§7) The herbicidal compounds bixlozone and pethoxamid were applied in a variety of forms and at a variety of amounts, application rates, and normalities. Efficacy of the herbicidal compositions was evaluated with reference to a scale of 0% to 100% in comparison with untreated control plots. 0 means no damage to the harmful plants and 100 means complete destruction of the harmful plants. Plants per square meter is indicated by “pl/m^2”, and grams per hectare is indicated by “g/ha”. […]

[3] = system: Digitaria sanguinalis (DIGSA); assay: pre-emergence control of DIGSA in corn (efficacy, Colby synergy); settings: bixlozone 375, pethoxamid 1200, mixtures 375 + 1200 g/ha
Description: as §3, §4, §7

CHEPO = assay: pre-emergence control of CHEPO in corn (efficacy, Colby synergy); settings: bixlozone 375, pethoxamid 800, tank mix 375 + 800, premix 375 + 775 g/ha
Description: (§8) Table 10. Synergy data of various forms and mixtures of bixlozone and pethoxamid after pre-emergence application on corn at the crop row closure stage (BBCH 18). […] The notations in parentheses show the forms and amounts (in g/ha) of applied bixlozone and pethoxamid, respectively. Where “tank” is noted, the mix is a tank mix. Where “premix” is noted, the mix is a premix. Where there is no notation, the value shown is the Colby calculation for the expected value from separate mixtures.
as §1, with “800” for “1200”, “CHEAL” for “CHEAL, MATSS,”, “ABUTH)” for “POLSS)”
(§9) Table 12. Efficacies of various forms and mixtures of bixlozone and pethoxamid after pre-emergence application on corn. Weeds were present at ≥5 pl/m^2. Concentrations are shown in parentheses in g/ha.

[4] = system: Echinochloa crus-galli (ECHCG); assay: pre-emergence control of ECHCG in corn (efficacy, Colby synergy)
Description: as §3, §4, §7

Solanum nigrum (SOLNI) = assay: pre-emergence control of SOLNI in corn (efficacy, Colby synergy)
Description: as §3, §4, §5, §6

ANGAR = assay: pre-emergence control of ANGAR in corn (efficacy, Colby synergy); settings: bixlozone 375, pethoxamid 800, tank mix 375 + 800, premix 375 + 775 g/ha
Description: as §8
as §1, with “800” for “1200”, “CHEAL” for “CHEAL, MATSS,”, “ABUTH)” for “POLSS)”
as §9

GALAP = assay: pre-emergence control of GALAP in corn (efficacy, Colby synergy)
Description: as §8
as §1, with “800” for “1200”, “CHEAL” for “CHEAL, MATSS,”, “ABUTH)” for “POLSS)”
as §9
Various forms, compositions, and mixtures of bixlozone and pethoxamid were applied to corn before emergence. […]

[5] = system: Convolvulus arvensis (CONAR); assay: pre-emergence control of CONAR in corn (efficacy, Colby synergy); settings: bixlozone 375, pethoxamid 300, mixtures 375 + 300 g/ha
Description: as §3, §4, §7

[6] = system: Chenopodium hybridum (CHEHY); assay: pre-emergence control of CHEHY in corn (efficacy, Colby synergy); settings: bixlozone 375, pethoxamid 300, mixtures 375 + 300 g/ha
Description: as §3, §4, §7

[7] = system: Fallopia convolvulus (POLCO); assay: pre-emergence control of POLCO in corn (efficacy, Colby synergy)
Description: as §3, §4, §7

[8] = system: Polygonum aviculare (POLAV); assay: pre-emergence control of POLAV in corn (Colby synergy); settings: bixlozone 375, pethoxamid 1200, mixtures 375 + 1200 g/ha
Description: as §3, §7

POAAN = assay: pre-emergence control of POAAN in corn (efficacy, Colby synergy); settings: bixlozone 375, pethoxamid 300, mixtures 375 + 300 g/ha
Description: as §2
as §1, with “300” for “1200”, “SOLNI” for “CHEAL, MATSS,”, “ABUTH).” for “POLSS) and grasses (e.g., ECHCG, DIGSA, and SETVI).”
Table 13. Efficacies of various forms and mixtures of bixlozone and pethoxamid after pre-emergence application on corn. Weeds were present at ≥5 pl/m^2. Concentrations are shown in parentheses in g/ha.
Various forms, compositions, and mixtures of bixlozone and pethoxamid were applied to corn before emergence. […] There was equivalent efficacy for fixed rate of bixlozone combined with pethoxamid: 1200 or 900 g/ha. Efficacy was reduced when bixlozone rate decreased from 250 to 150 g/ha.
Table 14. […]

[9] = system: Lolium multiflorum (LOLMU); assay: pre-emergence control of LOLMU in corn (Colby synergy); settings: bixlozone 375, pethoxamid 1200, mixtures 375 + 1200 g/ha
Description: as §3, §7

[10] = system: Sorghum halepense (SORHA); assay: pre-emergence control of SORHA in corn (efficacy, Colby synergy)
Description: as §3, §4, §7

[11] = system: Chenopodium album (CHEAL); assay: pre-emergence control of CHEAL in corn (efficacy, Colby synergy)
Description: as §3, §4, §5, §6

[12] = system: Portulaca oleracea (POROL); assay: pre-emergence control of POROL in corn (Colby synergy)
Description: as §3, §5, §1

[13] = system: Potentilla tridentate (PTLTR); assay: pre-emergence control of PTLTR in corn (Colby synergy); settings: bixlozone 375, pethoxamid 1200, mixtures 375 + 1200 g/ha
Description: as §3, §7

Senecio vulgaris (SENVU) = assay: pre-emergence control of SENVU in corn (efficacy, Colby synergy); settings: bixlozone 375, pethoxamid 800, tank mix 375 + 800, premix 375 + 775 g/ha
Description: as §3, §4, §7

[14] = bixlozone 375, pethoxamid 300, mixtures 375 + 300 g/ha
[15] = bixlozone 375, pethoxamid 1200, mixtures 375 + 1200 g/ha
[16] = bixlozone 375, pethoxamid 800, tank mix 375 + 800, premix 375 + 775 g/ha

**Q.** How did the Efficacy (CAGSE; [14]) turn out when `CCOCCN(C(=O)CCl)C(=C(C)C)c1ccccc1` [pethoxamid] was run?
**A.** The Efficacy was 10.

**Q.** And the Efficacy (CAGSE; [15])?
**A.** Its Efficacy is 0.

**Q.** And the Efficacy [1, 14]?
**A.** The Efficacy was 45.5.

**Q.** What about the Efficacy [1, 16] of the same compound?
**A.** Its Efficacy is 61.8.

**Q.** And the Efficacy [1, 15]?
**A.** Its Efficacy is 62.5.

**Q.** What about the Efficacy [2] of the same compound?
**A.** The Efficacy was 99.3.

**Q.** And the Efficacy [3]?
**A.** The Efficacy was 82.

**Q.** What about the Efficacy (CHEPO) of the same compound?
**A.** Its Efficacy is 30.

**Q.** What about the Efficacy [4, 14] of the same compound?
**A.** The Efficacy was 48.4.

**Q.** And the Efficacy [4, 15]?
**A.** The Efficacy was 85.5.

**Q.** What about the Efficacy (Solanum nigrum (SOLNI); [14]) of the same compound?
**A.** Its Efficacy is 28.8.

**Q.** And the Efficacy (Solanum nigrum (SOLNI); [16])?
**A.** The Efficacy was 52.5.

**Q.** And the Efficacy (Solanum nigrum (SOLNI); [15])?
**A.** The Efficacy was 76.5.

**Q.** And the Efficacy (ANGAR)?
**A.** Its Efficacy is 100.

**Q.** What about the Efficacy (GALAP; [14]) of the same compound?
**A.** Its Efficacy is 7.5.

**Q.** And the Efficacy (GALAP; [16])?
**A.** Its Efficacy is 7.5.

**Q.** What about the Efficacy [5] of the same compound?
**A.** Its Efficacy is 39.6.

**Q.** What about the Efficacy [6] of the same compound?
**A.** Its Efficacy is 0.

**Q.** And the Efficacy [7, 16]?
**A.** The Efficacy was 1.3.

**Q.** And the Efficacy [7, 15]?
**A.** The Efficacy was 12.1.

**Q.** And the Efficacy [8]?
**A.** The Efficacy was 77.5.

**Q.** And the Efficacy (POAAN)?
**A.** The Efficacy was 7.5.

**Q.** And the Efficacy [9]?
**A.** Its Efficacy is 78.8.

**Q.** What about the Efficacy [10, 16] of the same compound?
**A.** The Efficacy was 80.

**Q.** And the Efficacy [10, 15]?
**A.** Its Efficacy is 27.5.

**Q.** What about the Efficacy [11, 14] of the same compound?
**A.** Its Efficacy is 35.7.

**Q.** What about the Efficacy [11, 16] of the same compound?
**A.** Its Efficacy is 66.6.

**Q.** What about the Efficacy [11, 15] of the same compound?
**A.** Its Efficacy is 72.2.

**Q.** What about the Efficacy [12, 14] of the same compound?
**A.** The Efficacy was 48.8.

**Q.** And the Efficacy [12, 16]?
**A.** Its Efficacy is 98.8.

**Q.** What about the Efficacy [12, 15] of the same compound?
**A.** The Efficacy was 94.6.

**Q.** What about the Efficacy [13] of the same compound?
**A.** Its Efficacy is 0.

**Q.** And the Efficacy (Senecio vulgaris (SENVU))?
**A.** Its Efficacy is 13.8.
